According to the supplement of paper PMC10307832:

Columns and labels:
Assay in all cases: relative viability (nuclei count vs DMSO), 5 days (fraction); higher = more cells survive
Adavosertib + Linsitinib = compound: C=CCn1c(=O)c2cnc(Nc3ccc(N4CCN(C)CC4)cc3)nc2n1-c1cccc(C(C)(C)O)n1 [Adavosertib] + C[C@]1(O)C[C@@H](c2nc(-c3ccc4ccc(-c5ccccc5)nc4c3)c3c(N)nccn32)C1 [Linsitinib] (partner 1 µM)
How it was run: (§1)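 The day after seeding in 1536-well plates, lung cancer cell lines were treated by pin tool with a single drug, or with a fixed anchor-drug dose together with five library-drug doses (not always all listed) in √10 steps. After 5 days, a combined fix-and-stain solution (final 0.05% Triton X-100, 1% formaldehyde, 1 ug/ml Hoechst) was added. Nuclei counted on 4× images gave relative viability as treated counts over vehicle counts, reported as the median of duplicate plates.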

Nelarabine + Crizotinib = compound: COc1nc(N)nc2c1ncn2[C@@H]1O[C@H](CO)[C@@H](O)[C@@H]1O [Nelarabine] + C[C@@H](Oc1cc(-c2cnn(C3CCNCC3)c2)cnc1N)c1c(Cl)ccc(F)c1Cl [Crizotinib] (partner 1 µM)
How it was run: as §1

Nelarabine + Pemetrexed = compound: COc1nc(N)nc2c1ncn2[C@@H]1O[C@H](CO)[C@@H](O)[C@@H]1O [Nelarabine] + Nc1nc2[nH]cc(CCc3ccc(C(=O)N[C@@H](CCC(=O)O)C(=O)O)cc3)c2c(=O)[nH]1 [Pemetrexed] (partner 0.2 µM)
How it was run: as §1

Nelarabine + Olaparib = compound: COc1nc(N)nc2c1ncn2[C@@H]1O[C@H](CO)[C@@H](O)[C@@H]1O [Nelarabine] + O=C(c1cc(Cc2n[nH]c(=O)c3ccccc23)ccc1F)N1CCN(C(=O)C2CC2)CC1 [Olaparib] (partner 8 µM)
How it was run: as §1

Cell Line	relative viability (Adavosertib + Linsitinib; first compound 0.01 µM)	relative viability (Adavosertib + Linsitinib; first compound 0.03162 µM)	relative viability (Adavosertib + Linsitinib; first compound 0.1 µM)	relative viability (Adavosertib + Linsitinib; first compound 0.3162 µM)	relative viability (Nelarabine + Crizotinib; first compound 0.01 µM)	relative viability (Nelarabine + Crizotinib; first compound 0.03162 µM)	relative viability (Nelarabine + Crizotinib; first compound 0.1 µM)	relative viability (Nelarabine + Crizotinib; first compound 0.3162 µM)	relative viability (Nelarabine + Crizotinib; first compound 1 µM)	relative viability (Nelarabine + Pemetrexed; first compound 0.01 µM)	relative viability (Nelarabine + Pemetrexed; first compound 0.03162 µM)	relative viability (Nelarabine + Pemetrexed; first compound 0.1 µM)	relative viability (Nelarabine + Pemetrexed; first compound 0.3162 µM)	relative viability (Nelarabine + Pemetrexed; first compound 1 µM)	relative viability (Nelarabine + Olaparib; first compound 0.01 µM)	relative viability (Nelarabine + Olaparib; first compound 0.03162 µM)	relative viability (Nelarabine + Olaparib; first compound 0.1 µM)	relative viability (Nelarabine + Olaparib; first compound 0.3162 µM)	relative viability (Nelarabine + Olaparib; first compound 1 µM)
NCI-H1915	1.11	1.12	1.14	1.17	1.23	0.941	0.953	0.916	0.881	0.676	0.539	0.561	0.658	0.699	0.25	0.264	0.261	0.251	0.24
ABC-1	1.03	0.849	0.647	0.682	1.07	1.09	0.994	1.14	0.976						0.774	0.706	0.777	0.903	0.835
NCI-H358	0.747	0.675	0.547	0.374	0.58	0.481	0.4	0.573	0.514	0.181	0.227	0.161	0.172	0.328	0.616	0.406	0.587	0.637	0.627
HCC-366	0.62	0.802	0.659	0.774	0.594	0.222	0.51	1.01	0.618	0.204	0.146	0.202	0.225	0.22	0.33	0.327	0.434	0.385	0.389
EBC-1	0.91	0.962	0.994	1.18	0.157	0.178	0.182	0.235	0.194						0.89	0.911	0.707	0.676	0.737
NCI-H1650					1.07	0.809	0.999	0.981	0.847	0.531	0.406	0.381	0.432	0.343	0.922	0.81	1	0.883	0.946
NCI-H1395	1.17	1.18	1.2	0.955						0.818	0.755	1.21	0.773	0.707	0.465	0.431	0.403	0.464	0.519
SW 900										0.53	0.538	0.482	0.526	0.506	0.843	0.752	0.96	0.949	0.797
ChaGo-K-1					1.11	1.01	1.32	1.23	1.17	0.242	0.249	0.261	0.258	0.252	0.324	0.404	0.452	0.433	0.428
NCI-H1299	0.963	0.985	0.996	0.95	1.04	1.03	0.963	0.979	0.966						1	0.999	0.989	1.02	1.03
IA-LM	0.687	0.749	0.692	0.807	1.08	0.674	0.844	0.876	0.791						0.932	0.811	0.877	0.825	0.789
NCI-H1703	1.05	0.822	1.01	0.414	0.577	0.701	0.78	1.01	0.594						0.547	0.293	0.295	0.557	0.524
Calu-6	0.906	0.917	1.02	0.866	0.848	0.613	0.879	0.825	0.826						0.67	0.65	0.698	0.575	0.594
NCI-H1648											0.805		0.885	0.75		0.927		0.889	0.714
NCI-H1563	1.17	1.24	1.18	1.2	0.815	0.93	0.797	0.845	0.841	0.765	0.811	0.77	0.812	0.787					
NCI-H522										1.1	0.923	1.03	0.999	1.11	0.619	0.738	0.651	0.592	0.639
NCI-H727	0.334	0.249	0.311	0.32	1.05	1.06	0.765	0.94	0.865						0.697	0.559	0.636	0.731	0.656
NCI-H2170					1.47	1.01	1.24	1.35	1.26	0.269	0.262	0.228	0.318	0.303	0.708	0.561	0.61	0.577	0.547
NCI-H2342										0.901	0.659	0.681	0.817	0.801	0.442	0.432	0.443	0.395	0.442
A549	0.654	0.553	0.634	0.52	0.735	0.666	0.742	0.803	0.671						0.379	0.363	0.401	0.452	0.377
NCI-H1793	0.822	0.765	0.915	0.869						1.04		1.07	0.962	0.88	1.36		0.891	1.29	1.05
